Reference: patent publication US9981930B1, “MAGL inhibitors” (ABIDE THERAPEUTICS, INC., priority 2016, dated 2018)
pIC50: −log10 of the molar value.

How the values were obtained:
MAGL Human = target: T1, MAGL Human (Homo sapiens, UniProt Q99685); experiment: In vitro competitive activity-based protein profiling (human); format: biochemical; settings: human prefrontal cortex or cell membrane fractions; 30 min preincubation at 37° C.; FP-Rh or JW912 probe
T1 construct: Proteomes (human prefrontal cortex or cell membrane fractions); from tissue; host or cells: human prefrontal cortex or cell membrane fractions
T1 sequence (Q99685 1-303): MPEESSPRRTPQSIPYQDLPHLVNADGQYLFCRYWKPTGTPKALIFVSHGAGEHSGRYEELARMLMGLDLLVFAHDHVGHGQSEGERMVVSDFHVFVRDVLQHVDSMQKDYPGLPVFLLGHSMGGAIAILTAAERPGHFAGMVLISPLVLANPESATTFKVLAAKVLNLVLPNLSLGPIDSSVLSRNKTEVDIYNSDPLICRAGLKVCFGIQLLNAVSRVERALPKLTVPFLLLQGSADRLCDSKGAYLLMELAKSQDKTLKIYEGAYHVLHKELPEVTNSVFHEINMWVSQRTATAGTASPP
Method: In Vitro Competitive Activity-Based Protein Profiling (Human).
(§1) Proteomes (human prefrontal cortex or cell membrane fractions) (50 μL, 1.0-2.0 mg/mL total protein concentration) were preincubated with varying concentrations of inhibitors at 37° C. After 30 min, FP-Rh or JW912 (1.0 μL, 50 μM in DMSO) was added and the mixture was incubated for another 30 min at room temperature. Reactions were quenched with SDS loading buffer (15 μL-4×) and run on SDS-PAGE. Following gel imaging, serine hydrolase activity was determined by measuring fluorescent intensity of gel bands corresponding to MAGL using ImageJ 1.49k software.

MAGL = target: T2, MAGL (Mus musculus, UniProt O35678); experiment: Mouse brain proteomes from inhibitor treated mice (ex vivo activity-based protein profiling after oral gavage); format: in vivo; settings: 5 mg/kg oral gavage, C57Bl/6J mice, brain proteomes 4 h following administration
T2 construct: from tissue; host or cells: brain of wild-type C57Bl/6J mice
T2 sequence (O35678 1-303): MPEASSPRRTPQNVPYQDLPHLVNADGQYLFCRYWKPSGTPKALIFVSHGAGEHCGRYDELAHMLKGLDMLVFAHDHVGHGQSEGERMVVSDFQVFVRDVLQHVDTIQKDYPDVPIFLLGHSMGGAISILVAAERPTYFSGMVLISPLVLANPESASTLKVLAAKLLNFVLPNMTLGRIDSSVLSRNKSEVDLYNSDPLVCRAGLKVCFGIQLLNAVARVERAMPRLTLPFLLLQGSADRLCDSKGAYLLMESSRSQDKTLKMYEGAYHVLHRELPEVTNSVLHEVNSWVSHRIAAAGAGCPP
Method: as §1, with “(mouse brain membrane fraction” for “(human prefrontal cortex”, “lysates)” for “membrane fractions)”, “1.0” for “1.0-2.0”, “FP-Rh” for “FP-Rh or JW912”, “37° C.” for “room temperature.”, “(50” for “(15”
Preparation of Mouse Brain Proteomes from Inhibitor Treated Mice.

SMILES	pIC50 (MAGL Human)	inhibition at 5 mg/kg (MAGL) [%]
O=C(O)CCCNc1cc(C(F)(F)F)ccc1CN1CCN(C(=O)OC(C(F)(F)F)C(F)(F)F)CC1 [Example 1, 4-((2-((4-(((1,1,1,3,3,3-Hexafluoropropan-2-yl)oxy)carbonyl)piperazin-1-yl)methyl)-5-(trifluoromethyl)phenyl)amino)butanoic acid]	> 7.00	> 75
O=C(O)CCCNc1cc(Cl)ccc1CN1CCN(C(=O)OC(C(F)(F)F)C(F)(F)F)CC1 [Example 2, 4-((5-Chloro-2-((4-(((1,1,1,3,3,3-hexafluoropropan-2-yl)oxy)carbonyl)piperazin-1-yl)methyl)phenyl)amino)butanoic acid]	> 7.00	25 to 75
O=C(O)CNc1cc(Cl)ccc1CN1CCN(C(=O)OC(C(F)(F)F)C(F)(F)F)CC1 [Example 3, (5-Chloro-2-((4-(((1,1,1,3,3,3-hexafluoropropan-2-yl)oxy)carbonyl)piperazin-1-yl)methyl)phenyl)glycine]	> 7.00	25 to 75
O=C(O)CCNc1cc(C(F)(F)F)ccc1CN1CCN(C(=O)OC(C(F)(F)F)C(F)(F)F)CC1 [Example 4, 3-((2-((4-(((1,1,1,3,3,3-Hexafluoropropan-2-yl)oxy)carbonyl)piperazin-1-yl)methyl)-5-(trifluoromethyl)phenyl)amino)propanoic acid]	> 7.00	> 75
O=C(O)CCNc1cc(Cl)ccc1CN1CCN(C(=O)OC(C(F)(F)F)C(F)(F)F)CC1 [Example 5, 3-((5-Chloro-2-((4-(((1,1,1,3,3,3-hexafluoropropan-2-yl)oxy)carbonyl)piperazin-1-yl)methyl)phenyl)amino)propanoic acid]	> 7.00	–
O=C(O)CNc1cc(C(F)(F)F)ccc1CN1CCN(C(=O)OC(C(F)(F)F)C(F)(F)F)CC1 [Example 6, (2-((4-(((1,1,1,3,3,3-Hexafluoropropan-2-yl)oxy)carbonyl)piperazin-1-yl)methyl)-5-(trifluoromethyl)phenyl)glycine]	> 7.00	–
C[C@H](Nc1cc(C(F)(F)F)ccc1CN1CCN(C(=O)OC(C(F)(F)F)C(F)(F)F)CC1)C(=O)O [Example 7, (2-((4-(((1,1,1,3,3,3-hexafluoropropan-2-yl)oxy)carbonyl)piperazin-1-yl)methyl)-5-(trifluoromethyl)phenyl)-L-alanine]	> 7.00	25 to 75
